Results: article PMC12621189, “Optimization of Selective and CNS Penetrant Alkyne-Based TREK Inhibitors: The Discovery and Characterization of ONO-9517601 (VU6022856) and ONO-7927846 (VU6024391)” (Journal of Medicinal Chemistry, 2025)

Legend:
ChromatoLogD = assay type: physicochemical
[1] = Liver microsome intrinsic clearance, mouse; assay type: in vitro ADME; conditions: mouse liver microsomes, predicted intrinsic clearance, read-out: LMS CLINT mouse
mouse TREK-1 (mTREK-1) = biological target: T1, mouse TREK-1 (mTREK-1) (Mus musculus, UniProt P97438); assay: mTREK-1 manual patch clamp assay; assay type: cell-based; conditions: mouse TREK-1, manual patch clamp; read-out: TREK-1 IC50 (mouse, MPC)
T1 construct: expressed in transfected cells; host or cells: CHO-K1 (transient)
T1 sequence (P97438 1-426): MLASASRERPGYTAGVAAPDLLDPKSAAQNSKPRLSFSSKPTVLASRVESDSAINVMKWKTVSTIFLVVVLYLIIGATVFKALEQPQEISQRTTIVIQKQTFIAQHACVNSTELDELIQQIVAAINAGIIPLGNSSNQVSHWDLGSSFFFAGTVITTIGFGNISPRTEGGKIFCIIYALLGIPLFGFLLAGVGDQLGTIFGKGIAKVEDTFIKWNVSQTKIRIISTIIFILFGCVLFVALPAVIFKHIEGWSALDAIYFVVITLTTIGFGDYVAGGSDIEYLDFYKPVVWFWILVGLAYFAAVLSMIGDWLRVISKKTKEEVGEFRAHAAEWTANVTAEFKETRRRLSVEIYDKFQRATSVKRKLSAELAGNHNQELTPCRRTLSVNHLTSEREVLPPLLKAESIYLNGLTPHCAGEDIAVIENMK
Description: (§1) hTREK-1 and mTREK-1 patch clamp assay
(§2) CHO-K1 cells stably expressing hTREK-1 or CHO-K1 cells transiently expressing mouse TREK-1 (mTREK-1) were plated on glass coverslips, and voltage clamped in the whole-cell configuration of the patch clamp technique. Cells were voltage clamped at a holding potential of - 80 mV and the stepped to 0 mV for 500 msec. The voltage was subsequently ramped from -120mV to +80 mV over a 500 msec duration. This step-ramp protocol was repeated every 10 sec. The bathing solution contained the following: 135 mM NaCl, 5 mM KCl, 2 mM CaCl2, 1 mM MgCl2, 5 mM D-Glucose, 10 mM HEPES, 10 mM sucrose (adjusted to pH 7.4 with NaOH, 300 mosmol/kg H2O). The pipette solution contained the following: 135 mM KCl, 2 mM MgCl2, 1 mM EGTA, 10 mM HEPES, 2 mM Na2ATP (adjusted to pH 7.35 with KOH, 285 mosmol/kg H2O). Test […]
(§3) compounds were dissolved into the bathing solution. The effects of test compound on the currents were calculated at 0 mV using the following equations:
(§4) % inhibition = (1-post current/pre current) x 100
(§5) % inhibition vs compound concentrations were plotted in GraphPad Prism and calculated IC50. […]

hTREK-1 = biological target: T2, hTREK-1 (Homo sapiens, UniProt O95069); assay: hTREK-1 manual patch clamp assay; assay type: cell-based; conditions: human TREK-1, manual patch clamp; read-out: TREK-1 IC50 (human, MPC)
T2 construct: expressed in transfected cells
T2 sequence (O95069 1-426): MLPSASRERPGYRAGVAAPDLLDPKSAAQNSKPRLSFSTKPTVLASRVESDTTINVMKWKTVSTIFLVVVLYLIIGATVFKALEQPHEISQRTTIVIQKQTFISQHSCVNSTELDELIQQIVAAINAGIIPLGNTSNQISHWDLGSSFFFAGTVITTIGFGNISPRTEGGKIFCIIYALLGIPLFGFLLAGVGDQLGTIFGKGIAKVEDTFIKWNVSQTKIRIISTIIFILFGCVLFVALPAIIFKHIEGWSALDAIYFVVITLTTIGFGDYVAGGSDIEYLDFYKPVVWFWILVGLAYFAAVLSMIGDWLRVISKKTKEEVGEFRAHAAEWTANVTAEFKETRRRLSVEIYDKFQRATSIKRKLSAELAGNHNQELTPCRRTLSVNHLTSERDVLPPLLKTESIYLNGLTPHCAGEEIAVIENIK
Description: as §1, §2, §3, §4, §5

[2] = Plasma protein binding, rat; assay type: in vitro ADME; conditions: bound; for fraction unbound at 6 h, 5 µM: rat, plasma, pH 7.4, rat plasma, read-out: PPB rat (converted)
Description: Plasma protein binding and Brain homogenate binding: Determination of fraction unbound (f u) in plasma was conducted in vitro via equilibrium dialysis using HTDialysis (HTD) membrane plates. The top half of the plate was filled with 100 uL of Dubelco’s Phosphate Buffered Saline, pH 7.4 (DPBS). Compounds were diluted into plasma from each species (5 µM final concentration), which was aliquoted in triplicate to the ‘bottom half’ of the prepared HTD plate wells. The HTD plate was sealed and incubated for 6 hours at 37 °C. Following incubation, each well (both top and bottom halves) were transferred (20 µL) to the corresponding wells of a 96-shallow-well (V-bottom) plate. The daughter plates were then matrix-matched (DPBS side wells received equal volume of plasma, and plasma side wells received equal volume of DPBS), and extraction solution (120 µL; acetonitrile containing 50 nM carbamazepine as IS) was added to all wells of both daughter plates to precipitate protein and extract test article. The plates were then sealed and centrifuged (3500 rcf) for 10 minutes at ambient temperature. Supernatant (60 µL) from each well of the daughter plates was then transferred to the corresponding wells of new daughter plates (96-shallow-well, V bottom) containing water (Milli-Q, 60 µL/well), and the plates were sealed in preparation for LC-MS/MS analysis (see LC-MS/MS analysis method below).
The unbound fraction (f u) was calculated following the equation below, and mean values for each species were calculated from 3 replicates. […]
Fraction unbound for both plasma and brain samples was determined using Equation 4.
Equation 4 Determination of fraction unbound in plasma. […]

Cc1cc(C#Cc2ccccc2)cnc1NC(=O)c1cc(OC[C@@H]2COCCO2)ccc1Cl [Compound 7, (S)-5-((1,4-Dioxan-2-yl)methoxy)-2-chloro-N-(3-methyl-5-(phenylethynyl)pyridin-2-yl)benzamide]
chromatographic logD (ChromatoLogD): 4.14
CLint scaled at 1 µM ([1]; pH 7.4): 88 mL/min/kg
IC50 (mouse TREK-1 (mTREK-1)): 170 nM
IC50 (hTREK-1): 79 nM

CC(=O)N1CCC(n2ncc(Cl)c2C(=O)Nc2ncc(C#Cc3ccccc3)cc2C)CC1 [Compound 10, 1-(1-Acetylpiperidin-4-yl)-4-chloro-N-(3-methyl-5-(phenylethynyl)pyridin-2-yl)-1H-pyrazole-5-carboxamide]
chromatographic logD (ChromatoLogD): 3.8
CLint scaled [1]: 8 mL/min/kg
fraction unbound at 6 h, 5 µM [2]: 0.013
IC50 (mouse TREK-1 (mTREK-1)): 67 nM
IC50 (hTREK-1): 63 nM

CC(=O)N1CC[C@@H](n2ncc(Cl)c2C(=O)Nc2ncc(C#Cc3ccc(F)cc3)cc2C)[C@H](F)C1 [Compound 11, 1-((3R,4R)-1-Acetyl-3-fluoropiperidin-4-yl)-4-chloro-N-(5-((4-fluorophenyl)ethynyl)-3-methylpyridin-2-yl)-1H-pyrazole-5-carboxamide]
chromatographic logD (ChromatoLogD): 3.9
CLint scaled [1]: 134 mL/min/kg
fraction unbound at 6 h, 5 µM [2]: 0.083
IC50 (mouse TREK-1 (mTREK-1)): 760 nM
IC50 (hTREK-1): 64 nM

Cc1cc(C#Cc2ccccc2)cnc1NC(=O)c1c(Cl)cnn1[C@H]1CCOC1 [Compound 15a, (S)-4-Chloro-N-(3-methyl-5-(phenylethynyl)pyridin-2-yl)-1-(tetrahydrofuran-3-yl)-1H-pyrazole-5-carboxamide]
PPB rat ([2]; rat plasma): 98.1%
fraction unbound at 6 h, 5 µM [2]: ~0.02
